Experimental data published in patent US8153592B2, “Modulating toll-like receptor activity” (Mayo Foundation for Medical Education and Research, priority 2005, dated 2012).

Assays:
TLR4/MD2 complex = molecular target: T1, TLR4/MD2 complex (Mus musculus, UniProt Q9JHF9+Q9QUK6); assay: Cell surface expression of TLR4/MD2 on HEK/TLR4(+) cells (flow cytometry); type: cell-based, murine; settings: HEK/TLR4 cells treated with SDF-1
T1 construct: expressed in transfected cells; host or cells: HEK 293 (HEK/TLR4(+))
T1 sequence (Q9QUK6 26-835): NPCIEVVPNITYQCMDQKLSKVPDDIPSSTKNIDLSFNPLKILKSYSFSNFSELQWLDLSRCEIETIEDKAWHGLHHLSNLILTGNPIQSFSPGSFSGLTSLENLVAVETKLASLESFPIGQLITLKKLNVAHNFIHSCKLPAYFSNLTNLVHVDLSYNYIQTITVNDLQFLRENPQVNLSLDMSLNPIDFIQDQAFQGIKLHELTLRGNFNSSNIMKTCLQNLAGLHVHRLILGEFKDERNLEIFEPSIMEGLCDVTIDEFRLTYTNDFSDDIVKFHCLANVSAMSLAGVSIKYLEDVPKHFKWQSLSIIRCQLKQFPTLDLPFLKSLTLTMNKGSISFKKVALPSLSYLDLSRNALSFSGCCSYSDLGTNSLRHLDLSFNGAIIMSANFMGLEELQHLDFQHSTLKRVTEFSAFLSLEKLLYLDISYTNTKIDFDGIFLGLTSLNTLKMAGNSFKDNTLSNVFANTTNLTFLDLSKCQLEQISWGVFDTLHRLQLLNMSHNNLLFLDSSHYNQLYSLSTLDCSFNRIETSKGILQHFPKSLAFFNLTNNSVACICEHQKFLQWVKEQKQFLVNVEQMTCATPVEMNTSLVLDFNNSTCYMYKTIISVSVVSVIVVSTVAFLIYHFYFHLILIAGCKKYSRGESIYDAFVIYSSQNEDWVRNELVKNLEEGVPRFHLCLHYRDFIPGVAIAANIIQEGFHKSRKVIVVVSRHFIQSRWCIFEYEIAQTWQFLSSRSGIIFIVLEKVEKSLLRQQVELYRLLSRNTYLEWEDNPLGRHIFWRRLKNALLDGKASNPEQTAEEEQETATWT
T1 sequence (Q9JHF9 19-160): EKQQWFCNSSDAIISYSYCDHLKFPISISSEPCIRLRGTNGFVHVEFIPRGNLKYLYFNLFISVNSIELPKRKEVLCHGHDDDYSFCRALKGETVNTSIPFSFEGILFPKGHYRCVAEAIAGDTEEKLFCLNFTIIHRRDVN
Description: FIG. 2. TLR4 signaling is conditioned by extracellular matrix. The impact of extracellular matrix on TLR4 activation was tested in cells cultured in wells coated with extracellular matrix. (A) and (B) Inhibition of NFκB activation by extracellular matrix in HEK/TLR4(+) cells. HEK/TLR4(+) cells were cultured in wells coated with extracellular matrix (ECM) or fibronectin (FN) and transfected with NFκB- and control-luciferase reporter genes. TLR4 signaling in response to increasing amounts of heparan sulfate (A) or LPS (B) was measured six hours after stimulation. […] The cells were tested for cell surface expression of the TLR4/MD2 complex by flow cytometry using monoclonal antibodies specific for that complex. […] (D) and (E) Inhibition of p38 MAP Kinase activation by extracellular matrix in RAW 264 cells. (D) RAW 264.7 murine macrophages were cultured in wells coated with extracellular matrix (ECM) or fibronectin (FN). The cells were stimulated with heparan sulfate (left panel) or LPS (right panel) for the indicated time (minutes), after which the cells were lysed and activated p38 MAPK (phospho p38) was measured by immunoblotting. […] Similar results were obtained for cells stimulated with LPS. The data shown are representative of 3 separate experiments and indicate that activation of TLR4 signaling is inhibited by extracellular matrix.

TLR4 [1] = molecular target: T2, TLR4 (Mus musculus, UniProt Q9JHF9+Q9QUK6); assay: NFκB-luciferase reporter assay in HEK/TLR4(+) cells with perturbed CXCR4 (Examples 2 and 3); type: cell-based, murine
T2 construct: expressed in transfected cells
T2 sequence (Q9QUK6 26-835): T1 sequence (Q9QUK6 26-835)
T2 sequence (Q9JHF9 19-160): T1 sequence (Q9JHF9 19-160)
Description: HEK 293 cells (human embryonic kidney cells) from American Type Culture Collection (ATCC) were cultured in DMEM containing 10% fetal bovine serum, penicillin, and streptomycin. […] TLR4/MD2/CD14 expressing HEK 293 cells were selected using appropriate antibiotic selection medium and were then cloned by limiting dilution in the same medium. Control cells were prepared using empty expression vectors and identical transfection and selection procedures.
HEK 293 cell lines stably expressing TLR4/MD2/CD14 were seeded into 24-well tissue culture plates (2×10^5 cells/well) and allowed to adhere at 37° C. overnight. The adherent cells were transfected with 0.1 μg pTK Renilla-luciferase and 0.1 μg NFκB-firefly-luciferase using Superfect Transfection Reagent (Qiagen) and then cultured for 24 hours at 37° C. in 1 mL DMEM containing 0.5% fetal bovine serum. The cells were stimulated as indicated, washed with phosphate buffered saline, and lysed with 150 μL Passive Lysis Buffer (Promega). The amount of Renilla- and Firefly-luciferase in the cell lysates was assayed simultaneously using Dual-Luciferase Reporter Assay System (Promega) and a TD-20/20 lumenometer (Turner Designs, Sunnyvale, Calif.). Activation of NFκB-firefly luciferase reporter activity is given as the ratio of firefly luciferase to the internal control Renilla luciferase activity, determined and expressed as the mean of triplicate wells.

CXCR4 = molecular target: T3, CXCR4 (Homo sapiens, UniProt P61073); assay: CXCR4 cell surface level on Jurkat T cells (FACS, internalization of CXCR4); type: cell-based; settings: 37° C. for 30 minutes
T3 construct: endogenous in cells; host or cells: Jurkat T cells
Description: To determine if the purified, recombinant [Hisx6]SDF-1 polypeptide activates CXCR4, Jurkat T cells were stimulated (37° C. for 30 minutes) with buffer alone or with buffer containing a synthetic SDF-1 polypeptide or the purified recombinant [Hisx6]SDF-1 polypeptide. Control cells were stimulated with bovine albumin. The treated cells were stained with fluorochrome-labeled anti-CXCR4 antibodies, and the amount of CXCR4 on the cell surface was measured by the intensity of CXCR4 antibody staining using FACS.

TLR4 [2] = molecular target: T2, TLR4; assay: NFκB-luciferase reporter assay in HEK/TLR4(+) cells (Example 1: TLR4 activators, extracellular matrix, elastase); type: cell-based, murine
Description: HEK 293 cells were stabily transfected with the TLR4 and MD2 or CD14 expression plasmids, each of which encode a component of a complete, functional TLR4 receptor complex (Akira and Takeda, Nat. Rev. Immunol., 4:499-511 (2004)) using Superfect (Qiagen, Valencia, Calif.) following the manufacturer's instructions. TLR4- and MD2- or CD14-expressing HEK 293 cells were obtained by culturing the transfected cells with appropriate antibiotic selection medium and cloning by limiting dilution in the selection medium. HEK 293 cells expressing TLR4, MD2, and CD14 were generated by transfecting HEK 293 cells expressing TLR4 and MD2 with the CD14 expression plasmid and selecting clones using appropriate antibiotic containing medium. Cell lines expressing TLR4 and MD2 and/or CD14 were then maintained in DMEM supplemented with 10% fetal bovine serum and the appropriate selection antibiotics. Control cell lines were transfected with empty expression vectors and incubated in selection conditions as described above.
Activation of NFκB was measured using a NFκB-luciferase reporter assay. HEK 293 cell lines stabily expressing TLR4, MD2, and/or CD14, or control cells were seeded into 24 well tissue culture plates (2×10^5 cells/well) in 1.0 mL DMEM containing 10% fetal bovine serum and penicillin and streptomycin. The cells were allowed to adhere to the culture wells at 37° C. overnight and were then transfected with 0.1 μg pTK Renilla-luciferase and 0.1 μg NFκB-firefly-luciferase using Superfect Transfection Reagent (Qiagen). Following transfection, the cells were washed once with phosphate buffered saline and cultured for 24 hours at 37° C. in 1.0 mL DMEM containing 0.5% fetal bovine serum. After various treatments, the culture medium was aspirated, and the cells were washed once with PBS. The cells were then lysed in 150 μL Passive Lysis Buffer (Promega) with rocking at room temperature for 15 minutes. Renilla- and Firefly-luciferase were assayed simultaneously using Dual-Luciferase Reporter Assay System (Promega) and a TD-20/20 luminometer (Turner Designs, Sunnyvale, Calif.). Activation of NFκB was reported as a ratio of the firefly luciferase activity to the constitutively expressed Renilla luciferase internal control, and as the mean of triplicate wells.

TLR4 [3] = assay: CD86 expression in mouse spleen after intrasplenic injection (immunopathology); type: in vivo, mice; settings: mice which lack TLR4 function (ScN), injected into spleen
Description: (§1) TLR4-deficient C57BL/10ScN mice, which have a deletion in chromosome 4 that encompasses the TLR4 gene, were obtained from The National Cancer Institute (Bethesda, Md.). C57BL/10SnJ mice, which have wild type TLR4 and are congenic with C57BL/10ScN were obtained from the Jackson Laboratory (Bar Harbor, Me.).
(§2) Mice were anesthetized, and the spleen was directly visualized through an incision in the lateral abdominal wall. TLR4 activators dissolved in 50 μL of PBS were injected into the spleen as follows. The solutions were injected as a 27 gauge needle was withdrawn along the long axis of the organ. Twelve hours after injection, the spleens were harvested and frozen in liquid nitrogen for analysis of CD86 expression. Studies were performed at twelve hours because preliminary experiments indicated CD86 expression became clearly detectable at this time. Longitudinal tissue sections were prepared from the center of the spleen and stained as described elsewhere (Dempsey et al., Glycobiology, 10:467-475 (2000)) with the following modifications. Secondary detection antibodies were diluted in M.O.M. diluent (Vector Laboratories, Burlingame, Calif.) and preabsorbed with mouse serum (Jackson ImmunoResearch Laboratories, West Grove, Pa.). Fluorescent images were converted to grayscale using SPOT software (Diagnostic Instruments, Sterling Heights, Mich.).

TLR4 [4] = molecular target: T4, TLR4 (Mus musculus, UniProt Q9QUK6); assay: as above; type: in vivo, mice; settings: wild-type TLR4 mice, 12 hours
T4 construct: Spleens of C57BL/10SnJ mice with wild-type TLR4 (SnJ) were injected with 10 ng LPS; from tissue; host or cells: mouse spleen in vivo (C57BL/10SnJ; control C57BL/10ScN lacks the TLR4 gene)
T4 sequence (Q9QUK6 26-835): T1 sequence (Q9QUK6 26-835)
T4 sequence (Q9JHF9 19-160 partner): T1 sequence (Q9JHF9 19-160)
Description: as §1, §2

T3 sequence (P61073 whole entry): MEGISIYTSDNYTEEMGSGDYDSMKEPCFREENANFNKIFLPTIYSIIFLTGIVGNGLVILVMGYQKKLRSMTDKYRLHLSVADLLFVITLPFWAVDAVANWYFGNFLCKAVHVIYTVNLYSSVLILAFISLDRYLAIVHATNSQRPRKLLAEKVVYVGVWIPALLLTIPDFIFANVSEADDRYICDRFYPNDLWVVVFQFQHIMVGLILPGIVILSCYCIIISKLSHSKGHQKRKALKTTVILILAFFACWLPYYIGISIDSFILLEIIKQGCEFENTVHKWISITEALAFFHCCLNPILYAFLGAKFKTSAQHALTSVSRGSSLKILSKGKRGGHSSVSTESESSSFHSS

With “SDF-1: the agonist for CXCR4; natural ligand polypeptide” the “Expression of TLR4” value (TLR4/MD2 complex) was “did not alter expression of TLR4”, the “TLR4 activation by LPS (NFκB-luciferase)” value (TLR4 [1]; HEK/TLR4(+) cells stimulated simultaneously with LPS and 50 nM SDF-1) was “indifferent to the presence of LPS at any concentration tested” and the “NFκB-luciferase reporter activation by the agent itself” value (TLR4 [1]; HEK/TLR4(+) cells, no LPS) was “slight activation of the luciferase reporter”.
For “[Hisx6]SDF-1: recombinant, histidine-tagged murine SDF-1 polypeptide produced in E. coli”, the “Amount of CXCR4 on the cell surface” value (CXCR4) was “stimulate a decrease in CXCR4 on cell surfaces”.
elastase was tested, and the “TLR4 response to elastase” value (TLR4 [2]; cells grown on fibronectin) was “did not respond to elastase”, the “Increase of TLR4 response to heparan sulfate versus no elastase” value (TLR4 [2]; cells on extracellular matrix, elastase 0.1 U/mL, 1 μg/mL heparan sulfate, 4 hours) was “about 3 fold” and the “TLR4 response without added agonist” value (TLR4 [2]; cells on extracellular matrix, elastase 0.3 U/mL, 4 hours) was “stimulated full TLR4 responses without addition of agonist”. The “Increase in CD86 expression” value (TLR4 [3]) was “not observed”, the “Expression of CD86 in splenocytes” value (TLR4 [4]; 0.01 U elastase into spleen) was “only modestly increased expression of CD86” and the “Expression of CD86 in splenocytes” value (TLR4 [4]; 0.1 U elastase alone) was “profoundly increased expression of CD86”. For the same substance, the “Expression of CD86 in splenocytes” value (TLR4 [4]; small amount (0.01 U) of elastase along with 1 ng LPS) was “profoundly increased expression of CD86”.
heparan sulfate was tested, and the “Activation of HEK/TLR4(+) cells (NFκB-luciferase)” value (TLR4 [2]; 10 μg/mL heparan sulfate or 10 ng/mL LPS, 6 hours) was “responded both to LPS and heparan sulfate” and the “TLR4 response to heparan sulfate” value (TLR4 [2]; cells grown on fibronectin, 1 μg/mL HS, 4 hours) was “responded fully to HS”.
pertussis toxin was tested, and the “TLR4 activation by LPS (NFκB-luciferase)” value (TLR4 [1]; HEK/TLR4(+) cells treated with 0.1 μg/mL pertussis toxin) was “diminished TLR4 activation by LPS”.
